Biological target: T1, hFXR (Homo sapiens, UniProt Q96RI1)
T1 construct: expressed in transfected cells; host or cells: CV-1 cells
T1 sequence (Q96RI1 1-486): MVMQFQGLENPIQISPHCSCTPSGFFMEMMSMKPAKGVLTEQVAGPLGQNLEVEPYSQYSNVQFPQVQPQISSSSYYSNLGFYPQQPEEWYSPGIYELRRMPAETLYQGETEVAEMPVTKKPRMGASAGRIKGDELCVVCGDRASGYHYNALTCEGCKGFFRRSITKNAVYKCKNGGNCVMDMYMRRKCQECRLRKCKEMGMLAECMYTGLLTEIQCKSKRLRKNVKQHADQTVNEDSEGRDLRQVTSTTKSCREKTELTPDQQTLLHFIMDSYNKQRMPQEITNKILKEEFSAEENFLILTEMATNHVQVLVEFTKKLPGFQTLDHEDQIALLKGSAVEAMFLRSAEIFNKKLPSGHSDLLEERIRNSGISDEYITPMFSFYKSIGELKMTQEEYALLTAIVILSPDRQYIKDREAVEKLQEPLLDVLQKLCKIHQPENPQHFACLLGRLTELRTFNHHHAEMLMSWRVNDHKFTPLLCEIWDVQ
T1 sequence (P19793 1-462 partner): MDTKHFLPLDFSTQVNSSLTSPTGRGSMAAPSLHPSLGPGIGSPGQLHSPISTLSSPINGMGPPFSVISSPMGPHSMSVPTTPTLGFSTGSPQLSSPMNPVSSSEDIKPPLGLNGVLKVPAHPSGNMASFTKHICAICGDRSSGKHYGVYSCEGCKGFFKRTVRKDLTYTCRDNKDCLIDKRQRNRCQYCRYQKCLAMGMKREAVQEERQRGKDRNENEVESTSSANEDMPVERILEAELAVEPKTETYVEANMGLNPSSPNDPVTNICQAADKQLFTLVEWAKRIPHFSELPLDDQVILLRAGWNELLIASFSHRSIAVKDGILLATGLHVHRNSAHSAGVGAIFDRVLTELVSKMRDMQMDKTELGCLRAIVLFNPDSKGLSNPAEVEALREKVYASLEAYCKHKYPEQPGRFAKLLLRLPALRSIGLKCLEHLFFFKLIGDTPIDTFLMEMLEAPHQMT
Assay: In Vitro FXR Assay (TK): TK-ECRE-luc reporter in transfected CV-1 cells
Assay type: cell-based
Settings: 18 hrs, luminescence, maximum efficacy of <25% of the Fexarmine control classified as '+'
Method: CV-1 cells were seeded at a density of 2,000,000 cells in a T175 flask with DMEM+10% charcoal double-stripped FBS and incubated at 37° C. in 5% CO2 for 18 h (O/N).
After 18 h of incubation, the medium in the T175 flask was changed with fresh DMEM+10% charcoal super-stripped serum. In a polypropylene tube, 2500 μL OptiMEM (Life Technologies, Cat #31985-062) was combined with expression plasmids for hFXR, hRXR, TK-ECRE-luc and pCMX-YFP. The tube was then briefly vortexed and incubated at room temperature for 5 minutes. Transfection reagent (X-tremeGENE HP from Roche, Cat #06 366 236 001) was added to the OptiMEM/plasmid mixture vortexed and incubated at room temperature for 20 minutes. Following incubation, the transfection reagent/DNA mixture complex was added to cells in the T175 flask and the cells were incubated at 37° C. in 5% CO2 for 18 h (O/N).
Compounds were serially diluted in DMSO and added to transfected CV-1 cells. The cells were then incubated for 18 hrs. The next day cells were lysed and examined for luminescence.

With `CNC(=O)O[C@H]1CC[C@H](C(=O)N(CC23CCC(c4ccc(N(C)C)nc4)(CC2)CC3)c2cccc(-c3coc(C4CC4)n3)c2)CC1` [Compound 3, 4-((3-(2-Cyclopropyloxazol-4-yl)phenyl)((4-(6-(dimethylamino)pyridin-3-yl)bicyclo[2.2.2]octan-1-yl)methyl)carbamoyl)cyclohexyl trans-methylcarbamate] the EC50 was no more than 250 nM.

`CCNC(=O)O[C@H]1CC[C@H](C(=O)N(C[C@H]2CC[C@H](c3ccc(OC)c(C)c3)CC2)c2cccc(-c3cnn(C4CC4)c3)c2)CC1` [Compound 3.01, trans-4-((3-(1-Cyclopropyl-1H-pyrazol-4-yl)phenyl)((trans-4-(4-methoxy-3-methylphenyl)cyclohexyl)methyl)carbamoyl)cyclohexyl ethylcarbamate] gave an EC50 of no more than 250 nM.

Work on `CNC(=O)O[C@H]1CC[C@H](C(=O)N(C[C@H]2CC[C@H](c3ccc(OC)c(C)n3)CC2)c2cccc(-c3cnn(C4CC4)c3)c2)CC1` [Compound 3.02, trans-4-((3-(1-Cyclopropyl-1H-pyrazol-4-yl)phenyl)((trans-4-(5-methoxy-6-methylpyridin-2-yl)cyclohexyl)methyl)carbamoyl)cyclohexyl methylcarbamate] yielded an EC50 of no more than 250 nM.

`CNC(=O)O[C@H]1CC[C@H](C(=O)N(CC23CCC(c4ccc(N(C)C)nc4)(CC2)CC3)c2cccc(-c3cnn(C4CC4)c3)c2)CC1` [Compound 3.03, 4-((3-(1-Cyclopropyl-1H-pyrazol-4-yl)phenyl)((4-(6-(dimethylamino)pyridin-3-yl)bicyclo[2.2.2]octan-1-yl)methyl)carbamoyl)cyclohexyl trans-methylcarbamate] was tested, and the EC50 was no more than 250 nM.

With `CNC(=O)O[C@H]1CC[C@H](C(=O)N(C[C@H]2CC[C@H](c3ccc(OC)c(C)c3)CC2)c2cc(-c3cnn(C4CC4)c3)ccn2)CC1` [Compound 3.04, trans-4-((4-(1-Cyclopropyl-1H-pyrazol-4-yl)pyridin-2-yl)((trans-4-(4-methoxy-3-methylphenyl)cyclohexyl)methyl)carbamoyl)cyclohexyl methylcarbamate] the EC50 was no more than 250 nM.

`CNC(=O)O[C@H]1CC[C@H](C(=O)N(C[C@H]2CC[C@H](c3ccc(N(C)C)nc3)CC2)c2cccc(-c3coc(C4CC4)n3)c2)CC1` [Compound 3.05, trans-4-((3-(2-Cyclopropyloxazol-4-yl)phenyl)((trans-4-(6-(dimethylamino)pyridine-3-yl)cyclohexyl)methyl)carbamoyl)cyclohexyl methylcarbamate] showed an EC50 of no more than 250 nM.

Molecule `COc1ccc([C@H]2CC[C@H](CN(c3cccc(-c4cnn(C5CC5)c4)c3)C(=O)[C@H]3CC[C@H](OC(=O)NCCO)CC3)CC2)cc1C` [Compound 4, trans-4-((3-(1-Cyclopropyl-1H-pyrazol-4-yl)phenyl)((trans-4-(4-methoxy-3-methylphenyl)cyclohexyl)methyl)carbamoyl)cyclohexyl (2-hydroxyethyl)carbamate] has an EC50 of no more than 250 nM.

Work on `COc1ccc([C@H]2CC[C@H](CN(c3cccc(-c4cnc(C5CC5)s4)c3)C(=O)[C@H]3CC[C@H](OC(=O)NCCO)CC3)CC2)cc1C` [Compound 4.01, trans-4-((3-(2-Cyclopropylthiazol-5-yl)phenyl)((trans-4-(4-methoxy-3-methylphenyl)cyclohexyl)methyl)carbamoyl)cyclohexyl (2-hydroxyethyl)carbamate] yielded an EC50 of no more than 250 nM.

`COc1ccc(C23CCC(CN(c4cccc(-c5cnc(C6CC6)s5)c4)C(=O)[C@H]4CC[C@H](OC(=O)NCCO)CC4)(CC2)CC3)cc1C` [Compound 4.02, 4-((3-(2-Cyclopropylthiazol-5-yl)phenyl)((4-(4-methoxy-3-methylphenyl)bicyclo[2.2.2]octan-1-yl)methyl)carbamoyl)cyclohexyl (2-hydroxyethyl)trans-carbamate] gave an EC50 of no more than 250 nM.

`CN(C)c1ccc(C23CCC(CN(c4cccc(-c5cnc(C6CC6)s5)c4)C(=O)[C@H]4CC[C@H](OC(=O)NCCO)CC4)(CC2)CC3)cn1` [Compound 4.03, 4-((3-(2-Cyclopropylthiazol-5-yl)phenyl)((4-(6-(dimethylamino)pyridin-3-yl)bicyclo[2.2.2]octan-1-yl)methyl)carbamoyl)cyclohexyl (2-hydroxyethyl)trans-carbamate] gave an EC50 of no more than 250 nM.

From patent US20220089575A1, “FARNESOID X RECEPTOR AGONISTS AND USES THEREOF” (Metacrine, Inc., priority 2017, published 2022)
